{"source": "paper PMC10225205", "about": "(Cancer Medicine, 2023)", "key": {"[1]": {"system": "advanced solid tumors", "assay": "FIGHT-102 efficacy, investigator-assessed RECIST 1.1", "type": "in vivo, human", "design": "key to Best overall response: PR, partial response; SD, stable disease; PD, progressive disease; NE, not evaluable", "settings": "Part 2; for Best change in sum of target lesion diameters / Best overall response: 13.5 mg ID", "protocol": "Efficacy assessments occurred at screening (baseline scan) and on Day 15 of every third cycle with a ±2‐day window. Tumor status was assessed by the investigator using appropriate disease‐specific techniques. For solid tumors, the Response Evaluation Criteria in Solid Tumors (RECIST) 1.1 criteria were used,[19] and the recommended method for measuring tumor burden was computed tomography scan. Alternative modalities compatible with RECIST 1.1 could be used at the investigator's discretion provided they were used consistently throughout the study.\nBoth the efficacy and the safety population included all patients who received at least 1 dose of study drug. The PK/pharmacodynamic population included all patients who received at least one dose of study drug and provided at least one postdose plasma sample for PK/pharmacodynamic measurement. No comparisons are made between patients or against historical controls; only comparisons to pretreatment conditions were made."}, "[2]": {"settings": "human, in vivo", "method": "(§1) Postdose samples were collected at 0.5, 1, 2, 4, 6, and 8 h on Day 1, and at 1 h on Day 14 of Cycle 1. For patients in the CD regimen, a postdose sample at 6 h on Day 14 was also collected.\n(§2) Pharmacodynamic data were presented using summary statistics."}, "[3]": {"settings": "cited from earlier work"}, "[4]": {"system": "pFGFR2", "settings": "read-out: In vivo IC50 for the inhibition of pFGFR2; cited from earlier work"}, "[5]": {"settings": "FIGHT-101; cited from earlier work"}, "[6]": {"assay": "FIGHT-102 pemigatinib plasma/urine pharmacokinetics (noncompartmental)", "settings": "for AUC(0-t) / AUC / Cmax / Vd/F / Tmax / half-life: human, in vivo, 13.5 mg; for AUC: AUCss,0-24h; for Vd/F: Vz/F; for Tmax: median; for half-life: t½", "method": "as §1, §2"}, "[7]": {"settings": "cholangiocarcinoma, central FGFR2 alteration, local FGFR2 translocation"}, "[8]": {"settings": "cholangiocarcinoma, central FGFR3 mutation"}, "[9]": {"settings": "colorectal cancer, central FGFR1 amp"}, "[10]": {"settings": "esophageal cancer, central FGF3/4/12/19 amp"}, "[11]": {"settings": "esophageal cancer, central FGFR1 amp"}, "[12]": {"settings": "lung cancer (NSCLC), central FGFR1 amp, FGF12 amp"}, "[13]": {"settings": "other (apocrine sweat gland carcinoma), central FGFR2 amp"}, "[14]": {"settings": "other (intrahepatic cholangiocarcinoma), central FGFR3 fusion"}, "[15]": {"settings": "other (urachal cancer), central FGF3 amp"}, "[16]": {"settings": "urothelial tract/bladder cancer (bladder cancer), central FGFR3 mutation (p.Y373C)"}, "[17]": {"settings": "urothelial tract/bladder cancer (renal pelvis cancer), central FGF3/4/19 amp"}, "[18]": {"settings": "geometric mean (CV%), C1D14, 13.5 mg ID or CD, n 33"}, "[19]": {"settings": "mean ± SD, C1D14, 13.5 mg ID or CD, n 33"}}, "note": "Values joined by “and” are separate entries in the source; they are usually repeats but may differ in a detail not shown here. Equal values may be shown once. Read-outs that look alike come from different tables or passages of the source."}
{"smiles": "CCN1C(=O)N(c2c(F)c(OC)cc(OC)c2F)Cc2cnc3[nH]c(CN4CCOCC4)cc3c21", "note": "[Pemigatinib]", "values": [{"measurement": "Best change in sum of target lesion diameters", "setting": "[1]; [7]", "result": "–13.8%"}, {"measurement": "Best overall response", "setting": "[1]; [7]", "result": "SD"}, {"measurement": "Best change in sum of target lesion diameters", "setting": "[1]; [8]", "result": 30.9, "unit": "%"}, {"measurement": "Best overall response", "setting": "[1]; [8]", "result": "PD"}, {"measurement": "Best change in sum of target lesion diameters", "setting": "[1]; [9]", "result": 44.7, "unit": "%"}, {"measurement": "Best overall response", "setting": "[1]; [9]", "result": "PD"}, {"measurement": "Best change in sum of target lesion diameters", "setting": "[1]; [10]", "result": 34.9, "unit": "%"}, {"measurement": "Best overall response", "setting": "[1]; [10]", "result": "PD"}, {"measurement": "Best overall response", "setting": "[1]; esophageal cancer, central FGF3/4/19 amp, local FGF19 amp", "result": "PD"}, {"measurement": "Best change in sum of target lesion diameters", "setting": "[1]; [11]", "result": 6.5, "unit": "%"}, {"measurement": "Best overall response", "setting": "[1]; [11]", "result": "SD"}, {"measurement": "Best change in sum of target lesion diameters", "setting": "[1]; esophageal cancer, central FGFR1 amp, FGF3/4/19 amp (first of two such patients)", "result": 37.8, "unit": "%"}, {"measurement": "Best overall response", "setting": "[1]; esophageal cancer, central FGFR1 amp, FGF3/4/19 amp (first of two)", "result": "PD"}, {"measurement": "Best change in sum of target lesion diameters", "setting": "[1]; esophageal cancer, central FGFR1 amp, FGF3/4/19 amp (second of two such patients)", "result": 3.0, "unit": "%"}, {"measurement": "Best overall response", "setting": "[1]; esophageal cancer, central FGFR1 amp, FGF3/4/19 amp (second of two)", "result": "PD"}, {"measurement": "Best change in sum of target lesion diameters", "setting": "[1]; gallbladder cancer, central none, local FGFR3 mutation", "result": 25.0, "unit": "%"}, {"measurement": "Best overall response", "setting": "[1]; gallbladder cancer, local FGFR3 mutation", "result": "PD"}, {"measurement": "Best change in sum of target lesion diameters", "setting": "[1]; [12]", "result": 22.2, "unit": "%"}, {"measurement": "Best overall response", "setting": "[1]; [12]", "result": "PD"}, {"measurement": "Best change in sum of target lesion diameters", "setting": "[1]; [13]", "result": "–42.1%"}, {"measurement": "Best overall response", "setting": "[1]; [13]", "result": "PR"}, {"measurement": "Best change in sum of target lesion diameters", "setting": "[1]; [14]", "result": 65.2, "unit": "%"}, {"measurement": "Best overall response", "setting": "[1]; [14]", "result": "PD"}, {"measurement": "Best change in sum of target lesion diameters", "setting": "[1]; [15]", "result": 44.8, "unit": "%"}, {"measurement": "Best overall response", "setting": "[1]; [15]", "result": "PD"}, {"measurement": "Best overall response", "setting": "[1]; pancreatic cancer (neuroendocrine), central FGFR1 amp", "result": "PD"}, {"measurement": "Best change in sum of target lesion diameters", "setting": "[1]; pancreatic cancer (neuroendocrine), central FGFR1 amp, local FGFR1 mutation (p.N577K)", "result": 40.8, "unit": "%"}, {"measurement": "Best change in sum of target lesion diameters", "setting": "[1]; [16]", "result": "–19.6%"}, {"measurement": "Best overall response", "setting": "[1]; [16]", "result": "SD"}, {"measurement": "Best change in sum of target lesion diameters", "setting": "[1]; [17]", "result": 24.2, "unit": "%"}, {"measurement": "Best overall response", "setting": "[1]; [17]", "result": "PD"}, {"measurement": "Median duration of response", "setting": "[1]; responders, 95% CI: 4.17, 14.95", "result": 9.56, "unit": "months"}, {"measurement": "Geometric mean fraction of dose excreted in urine", "setting": "[2]", "result": 2.48, "unit": "%"}, {"measurement": "CLss/F, geometric mean (CV%)", "setting": "[2]; 9 mg", "result": "8.99 (91.0) L/h"}, {"measurement": "CLss/F, mean ± SD", "setting": "[2]; 9 mg", "result": "10.6 ± 6.31", "unit": "L/h"}, {"measurement": "tmax, median", "setting": "[2]; 9 mg", "result": 0.967, "unit": "h"}, {"measurement": "CLss/F, geometric mean (CV%)", "setting": "[2]; 18 mg", "result": "5.63 (43.8) L/h"}, {"measurement": "CLss/F, mean ± SD", "setting": "[2]; 18 mg", "result": "5.96 ± 2.50", "unit": "L/h"}, {"measurement": "tmax, median", "setting": "[2]; 18 mg", "result": 0.833, "unit": "h"}, {"measurement": "AUC0-24 geometric mean", "setting": "[3]; 13.5 mg QD steady state, CV% 54.1", "result": 2.62, "unit": "µM·h"}, {"measurement": "Geometric mean half-life", "setting": "[3]; 13.5 mg QD, CV% 51.6", "result": 15.4, "unit": "h"}, {"measurement": "Cmax", "setting": "[3]; 13.5 mg QD, CV% 56.4, read-out: Steady-state Cmax geometric mean", "result": 236, "unit": "nM"}, {"measurement": "Terminal half-life", "setting": "[3]; dose-independent", "result": 15, "unit": "h"}, {"measurement": "Time to reach Cmax", "setting": "[3]; doses of ≥6 mg", "result": "1 to 2", "unit": "h"}, {"measurement": "IC50", "setting": "[4]", "result": 22.6, "unit": "nM"}, {"measurement": "Most common (>30%) overall TEAEs", "setting": "[5]", "result": "hyperphosphatemia, fatigue, dry mouth, stomatitis, diarrhea, and alopecia"}, {"measurement": "Recommended dosage for further studies", "setting": "[5]", "result": 13.5, "unit": "mg QD"}, {"measurement": "tmax, median", "setting": "[6]; C1D1, 13.5 mg ID or CD, n 36", "result": 1, "unit": "h"}, {"measurement": "CLss/F, geometric mean (CV%)", "setting": "[6]; C1D14, 13.5 mg ID or CD, n 33", "result": "10.2 (55.5) L/h and 10.2 L/h"}, {"measurement": "CLss/F, mean ± SD", "setting": "[6]; C1D14, 13.5 mg ID or CD, n 33", "result": "11.6 ± 6.52", "unit": "L/h"}, {"measurement": "Cmin,ss, geometric mean (CV%)", "setting": "[6]; C1D14, 13.5 mg ID or CD, n 33", "result": "56.0 (61.0) nM"}, {"measurement": "Cmin,ss, mean ± SD", "setting": "[6]; C1D14, 13.5 mg ID or CD, n 33", "result": "66.2 ± 45.2", "unit": "nM"}, {"measurement": "AUC(0-t)", "setting": "[6]; AUC0-24h, geometric mean (CV%), C1D1, 13.5 mg ID or CD, n 36", "result": 1.88, "unit": "µM·h"}, {"measurement": "AUC(0-t)", "setting": "[6]; AUC0-24h, mean ± SD, C1D1, 13.5 mg ID or CD, n 36", "result": "2.02 ± 0.762", "unit": "µM·h"}, {"measurement": "AUC(0-t)", "setting": "[6]; AUClast, geometric mean (CV%), C1D1, 13.5 mg ID or CD, n 36", "result": 1.85, "unit": "µM·h"}, {"measurement": "AUC(0-t)", "setting": "[6]; AUClast, mean ± SD, C1D1, 13.5 mg ID or CD, n 36", "result": "1.99 ± 0.748", "unit": "µM·h"}, {"measurement": "AUC", "setting": "[6]; [18]", "result": 2.72, "unit": "µM·h"}, {"measurement": "AUC", "setting": "[6]; [19]", "result": "3.09 ± 1.68", "unit": "µM·h"}, {"measurement": "Cmax", "setting": "[6]; Cmax, geometric mean (CV%), C1D1, 13.5 mg ID or CD, n 36", "result": 216, "unit": "nM"}, {"measurement": "Cmax", "setting": "[6]; Cmax, mean ± SD, C1D1, 13.5 mg ID or CD, n 36", "result": "260 ± 136", "unit": "nM"}, {"measurement": "Cmax", "setting": "[6]; Cmax,ss, geometric mean (CV%), C1D14, 13.5 mg ID or CD, n 33", "result": 195, "unit": "nM"}, {"measurement": "Cmax", "setting": "[6]; Cmax,ss, mean ± SD, C1D14, 13.5 mg ID or CD, n 33", "result": "238 ± 139", "unit": "nM"}, {"measurement": "Vd/F", "setting": "[6]; [18]", "result": 201, "unit": "L"}, {"measurement": "Vd/F", "setting": "[6]; [19]", "result": "258 ± 216", "unit": "L"}, {"measurement": "Tmax", "setting": "[6]; C1D1, 13.5 mg ID or CD, n 36", "result": 1.43, "unit": "h"}, {"measurement": "Tmax", "setting": "[6]; C1D14, 13.5 mg ID or CD, n 33", "result": 1.02, "unit": "h"}, {"measurement": "half-life", "setting": "[6]; [18]", "result": 13.6, "unit": "h"}, {"measurement": "half-life", "setting": "[6]; [19]", "result": "15.4 ± 9.03", "unit": "h"}]}
